Experiments:
AML-3 patients = settings: oral, alone; cited from earlier work
[1] = tested on: human pro-myelocytic leukemia (HL-60 cells); assay: Inhibition of proliferation of HL-60 cells, Trypan Blue cell counts; type: cell-based; settings: 1400 micrograms/ml
Text: […] Five ml of each pirfenidone concentration, and of the control were placed into a T25 tissue culture flask along with 1X10^5 cells. Every day for 4 days an aliquote from each flask was taken out, then stained with Trypan Blue, and counts were repeated three times on each aliquote.

[2] = tested on: human T-cell leukemia (JURKAT) cells; assay: Inhibition of proliferation of JURKAT cells, MTS assay; type: cell-based; settings: 900 mcg/ml, 72 hours, statistically significant, read-out: reduction in number of cell which were active
Procedure: (§1) To determine the inhibitory effect of pirfenidone concentrations on human T-cell leukemia (JURKAT), a MTS assay was used which incorporates a tetrazolium dye that measures the cellular conversion of the dye into a formazan product by the activation of NADH-generating dehydrogenases found in metabolically active cells. Procedure: • 1. 100 microl. of cells was seeded into 96 well plates at 1X10^5 cells/ml in media containing 100 mcg/ml, 300 mcg/ml and 900 mcg/ml of pirfenidone, as well as a pirfenidone-free media control. • 2. Cells were incubated at 37 degrees C, at 5.0% CO2 for 72 hours. • 3. After incubation a standard curve was made of 100 microliters of cells added to the plate at 5X10^5 cells/ml making 1:2 dilutions all the way down to a pre-set degree of dilution. • 4. 2.0 mls of the MTS solution was mixed with a 100 microliter of the PMS solution, and 20 microliters of this combined dye solution was added to each well and incubated at 37 degrees C, 5.0% CO2 for 3 hours. • 5. Subsequently the absorbance was read at 490 nm.

[3] = tested on: human Burkitt's lymphoma (RAJI) cells; assay: Inhibition of proliferation of RAJI cells, MTS assay; type: cell-based; settings: 900 mcg/ml, 72 hours, statistically significant, read-out: reduction in number of cells which were active
Procedure: To determine the inhibitory effect of pirfenidone concentrations on Burkitt's lymphoma (RAJI) cells, a MTS assay was used which incorporates a tetrazolium dye that measures the cellular conversion of the dye into a formazan product by the activation of NADH-generating dehydrogenases found in metabolically active cells.
as §1, with “•” for “To determine the inhibitory effect of pirfenidone concentrations on human T-cell leukemia (JURKAT), a MTS assay was used which incorporates a tetrazolium dye that measures the cellular conversion of the dye into a formazan product by the activation of NADH-generating dehydrogenases found in metabolically active cells. Procedure: •”

HUMAN LEIOMYOMA CELLS = assay: Leiomyoma cell proliferation and viability, day 7 cell counts with Trypan Blue stain; type: cell-based; parameters: RECENT CELLS LEIOMYOMA: unit not given here; settings: for RECENT CELLS LEIOMYOMA: day 7 (control 0.0 MG: 9.0)
Procedure: Leiomyoma tissues were obtained from several premenopausal women with symptomatic uterine fibroids at elective hysterectomy, and who were not receiving any hormonal or other drug therapy. The fibroid tissues were minced into 1 - 2 mm\# explants and placed in suitable DMEM supplemented with 10% bovine serum. The fibroid tissue was digested for 14 -18 hours at 37 degrees C in an incubator. After centrifugation, a resulting cell pellet was resuspended in DMEM and then placed in culture flasks.
Leiomyoma cells were plated in 100mm dishes (100,000 each dish) and allowed to attach overnight in DMEM plus 10% fetal bovine serum until they reached 80-90% confluence.

Row | SMILES | clinical outcome (AML-3 patients) | Inhibition of proliferation as well as deaths of cells [1] | inhibition at 900 µg/mL [2] | inhibition at 900 µg/mL [3] | RECENT CELLS LEIOMYOMA (HUMAN LEIOMYOMA CELLS; 0.01 MG/ML) | RECENT CELLS LEIOMYOMA (HUMAN LEIOMYOMA CELLS; 0.1 MG/ML) | RECENT CELLS LEIOMYOMA (HUMAN LEIOMYOMA CELLS; 0.3 MG/ML) | RECENT CELLS LEIOMYOMA (HUMAN LEIOMYOMA CELLS; 1.0 MG/ML) | cytotoxicity at 1000 µg/mL (HUMAN LEIOMYOMA CELLS; Homo sapiens, 168 h, read-out: percentage of dead leiomyoma cells) | inhibitory effect on proliferation (HUMAN LEIOMYOMA CELLS; graded concentrations in the culture media, 7 days)
1 | CC1=C(/C=C/C(C)=C/C=C/C(C)=C/C(=O)O)C(C)(C)CCC1 [All-trans-retinoic acid] | complete remission | – | – | – | – | – | – | – | – | –
2 | Cc1ccc(=O)n(-c2ccccc2)c1 [pirfenidone] | – | deaths of almost all cells | 75% | 45% | 8.0 | 10.0 | 6.0 | 16.0 | 16% | significant inhibitory effect
